The values that follow come from patent US20060079568A1, “Inhibition of atherosclerosis by diindolylmethane analogs” (The Texas A&M University System, priority 2004, published 2006).

“Also recorded” adds a separate entry of the source.

In one series the test system is ICAM-1. Put plainly: TNF-α-induced cell surface expression of ICAM-1 in HUVECs measured by FACS. It is filed as cell-based, human. The conditions noted are these: then 5 ng/ml TNF-α; for reduction of TNF-α-induced ICAM-1 expression: 10 μmol/L pretreatment 6 hours, vs TNF-α-stimulated control cells; for effect on TNF-α-induced ICAM-1 expression (in words): pretreatment 6 hours (up to 10 μmol/L). As for the experimental part:
The expression of ICAM-1 on the cell surface was determined in HUVECs cultured in six-well plates pretreated with one of the three different p-substituted phenyl DIM analogs or with vehicle (0.1% DMSO) at the concentrations indicated. Their effects were compared with those of other PPARγ agonists by preincubating HUVECs with ciglitazone (Biomol, Plymouth meeting, Pa.) or 15d-PGJ2 (Calbiochem, San Diego, Calif.) at the same doses.
After 6 hours, cells were incubated with TNF-α (R&D Systems, Minneapolis, Minn.) at a concentration of 5 ng/ml for 12 hours. Cells were then detached with 10 mmol/L EDTA in 0.5% phosphate-buffered saline, collected by centrifugation, and stained for 30 minutes on ice in the dark with R-phycoerythrin-labeled monoclonal antibody against ICAM-1 (CD54) or with the appropriate R-phycoerythrin-labeled isotype IgG (Pharmingen, San Diego, Calif.) as a control.
The fluorescence intensity of 10,000 gated viable cells was analyzed for each sample on a FACSCalibur Flow Cytometer (Becton Dickinson Immunocytometry Systems, San Diego, Calif.) using Cell Quest (Becton Dickinson) acquisition software. All experiments were performed in triplicate.
Background: A flow cytometer gives signals particle by particle.

The test system of another series is MCP-1. The experiment in a line: MCP-1 production in supernatants of TNF-α-stimulated HUVECs, ELISA. It is filed as cell-based, human. The conditions noted are these: for MCP-1 level in supernatant after TNF-α stimulation: 10 μmol/L pretreatment 6 hours; for effect on TNF-α-induced MCP-1 production (in words): 10 μmol/L pretreatment, 5 ng/ml TNF-α. As for the experimental part:
(§1) In order to measure chemokine levels in the cell supernatant, HUVECs cultured in 24-well plates were preincubated for 6 hours with one of the three p-substituted phenyl DIM analogs at the concentrations indicated or with vehicle and then stimulated with 5 ng/ml TNF-α. For comparison, HUVECs were also preincubated with ciglitazone or 15d-PGJ2 at the same concentrations and then stimulated with TNF-α at a concentration of 5 ng/ml. Cell culture supernatants were collected 6 and 24 hours after the stimulation for analysis of IL-6 and MCP-1, respectively.
(§2) The levels of IL-6 and MCP-1 were quantified using commercial ELISA kits (BioSource International, Camarillo, Calif.) according to the manufacturer's directions. The minimum detectable concentration of the assay was 2 pg/ml for IL-6 and <20 pg/ml for MCP-1. All experiments were performed in triplicate.
(§3) To determine the effects of the three p-substituted phenyl DIM analogs on TNF-α-induced chemokine production in HUVECs, cells were pretreated for 6 hours with one of the three analogs at the concentrations indicated or with vehicle and then stimulated with 5 ng/ml TNF-α for the indicated time before the chemokine assays were performed.

A further series concerns HUVECs. The experiment in a line: Treatment of unstimulated HUVECs: apoptosis and baseline ICAM-1 expression. As to conditions: up to 10 μmol/L, HUVECs without TNF-α (data not shown).
The subject of the next series is IL-6. Put plainly: IL-6 production in supernatants of TNF-α-stimulated HUVECs, ELISA. It is filed as cell-based, human. As to conditions: for IL-6 level in supernatant after TNF-α stimulation: 10 μmol/L pretreatment 6 hours, then 5 ng/ml TNF-α 6 hours, TNF-α alone 228±12.7, baseline 52.8±7.5; for effect on TNF-α-induced IL-6 production (in words): 10 μmol/L pretreatment, 5 ng/ml TNF-α. The procedure: as §1, §2, §3
(In general: In an ELISA, binding on a coated surface is turned into a signal by an enzyme label.)

Another series concerns the target T1, PPAR-γ (Homo sapiens, UniProt P37231).
T1 sequence (P37231 1-505): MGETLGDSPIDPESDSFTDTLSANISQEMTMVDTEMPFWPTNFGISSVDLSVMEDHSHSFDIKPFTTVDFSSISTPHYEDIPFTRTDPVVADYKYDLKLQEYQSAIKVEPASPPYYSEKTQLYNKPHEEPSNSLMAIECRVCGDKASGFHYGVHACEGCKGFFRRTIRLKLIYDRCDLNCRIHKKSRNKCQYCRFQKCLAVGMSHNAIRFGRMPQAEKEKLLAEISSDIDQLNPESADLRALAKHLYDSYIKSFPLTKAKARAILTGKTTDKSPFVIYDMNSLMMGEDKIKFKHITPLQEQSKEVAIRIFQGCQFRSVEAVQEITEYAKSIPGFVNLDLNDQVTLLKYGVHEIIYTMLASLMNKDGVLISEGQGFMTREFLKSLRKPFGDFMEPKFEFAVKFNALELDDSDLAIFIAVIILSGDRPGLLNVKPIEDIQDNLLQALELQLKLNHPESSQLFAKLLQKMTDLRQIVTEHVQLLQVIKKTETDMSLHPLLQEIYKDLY
As to conditions: earlier structure-activity studies [5]; cited from earlier work.

Where [1] appears, read: then 5 ng/ml TNF-α 24 hours, TNF-α alone 7.8±0.19, baseline 1.05±0.07.

Take `CCCCC/C=C/C=C1/C(=O)C=C[C@@H]1C/C=C\CCCC(=O)O` [15d-PGJ2, 15-deoxy-δ^12,14-prostaglandin J2, reference compound]: in the series with ICAM-1, the “reduction of TNF-α-induced ICAM-1 expression” value (from here on “reduction”) came to 84.4% and the “effect on TNF-α-induced ICAM-1 expression (in words)” value was “significantly inhibited; also recorded: decreased”. In the series with MCP-1 (then 5 ng/mL TNF-α, comparison agonists), the MCP-1 level in supernatant after TNF-α stimulation was 1.5 ± 0.3 ng/mL. In addition, the “effect on TNF-α-induced MCP-1 production (in words)” value in the series with MCP-1 is given as “significantly inhibited”. Besides, the “change of baseline expression of ICAM-1” value in the series with HUVECs is given as “did not induce apoptosis or change the baseline expression of ICAM-1”. Besides, in the series with IL-6, the “IL-6 level in supernatant after TNF-α stimulation” value (“IL-6 level in supernatant” below) turned out to be 29.8 ± 1.6 pg/mL and the “effect on TNF-α-induced IL-6 production (in words)” value is recorded as “significantly inhibited”.
As for `c1ccc(-c2ccc(C(c3c[nH]c4ccccc34)c3c[nH]c4ccccc34)cc2)cc1` [DIM-C-pPhC6H5, 1,1-bis(3′-indolyl)-1-(p-biphenyl) methane], in the series on ICAM-1, the “reduction” value came out at 71.3% and the “effect on TNF-α-induced ICAM-1 expression (in words)” value is given as “inhibited; also recorded: decreased”. Also, the “MCP-1 level in supernatant after TNF-α stimulation” value with MCP-1 (setting [1]) came to 2.2 ± 0.49 ng/mL. The “effect on TNF-α-induced MCP-1 production (in words)” value in the series with MCP-1 is listed as “inhibited”. In the series with IL-6, the “IL-6 level in supernatant” value worked out at 143.4 ± 12.2 pg/mL and the “effect on TNF-α-induced IL-6 production (in words)” value was “inhibited”. The PPAR-γ agonist activity entry at PPAR-γ is “potent; also recorded: active agents”.
As for `Cc1ccc(C(c2c[nH]c3ccccc23)c2c[nH]c3ccccc23)cc1` [DIM-C-pPhCH3], in the series on ICAM-1, the “reduction” value amounted to 32% and the “effect on TNF-α-induced ICAM-1 expression (in words)” value is “lower activity; also recorded: inactive”. Further, in the series on MCP-1, the “effect on TNF-α-induced MCP-1 production (in words)” value is “lower activity; also recorded: did not decrease; also recorded: did not affect”. The “effect on TNF-α-induced IL-6 production (in words)” value with IL-6 is “lower activity; also recorded: did not decrease; also recorded: did not significantly inhibit”. Moreover, on PPAR-γ, the PPAR-γ agonist activity result is “less active; also recorded: low PPAR-γ agonist activity; also recorded: relatively inactive”.
Take `CC(C)(C)c1ccc(C(c2c[nH]c3ccccc23)c2c[nH]c3ccccc23)cc1` [DIM-C-pPhtBu, 1,1-bis(3′-indolyl)-1-(p-t-butylphenyl) methane]: in the series on ICAM-1, the “reduction” value came to 77.5% and the “effect on TNF-α-induced ICAM-1 expression (in words)” value is “inhibited; also recorded: decreased the expression of ICAM-1 in a concentration-dependent manner”. The “MCP-1 level in supernatant after TNF-α stimulation” value in the series with MCP-1 (setting [1]) is 3.9 ± 0.41 ng/mL. In the series on MCP-1, the “effect on TNF-α-induced MCP-1 production (in words)” value was “inhibited”. Besides, in the series on IL-6, the “IL-6 level in supernatant” value was found to be 130.3 ± 19.3 pg/mL and the “effect on TNF-α-induced IL-6 production (in words)” value is given as “inhibited”. Also, the PPAR-γ agonist activity result on PPAR-γ is reported as “potent; also recorded: active agents”.
On to `CC1(COc2ccc(CC3SC(=O)NC3=O)cc2)CCCCC1` (stereo not shown) [ciglitazone, reference compound], for which the “effect on TNF-α-induced ICAM-1 expression (in words)” value in the series on ICAM-1 is “inactive; also recorded: no inhibitory effect”. Besides, the “effect on TNF-α-induced MCP-1 production (in words)” value with MCP-1 was “inactive”. Also, the induction of apoptosis entry in the series on HUVECs is listed as “did not induce apoptosis”. For the same molecule, in the series on IL-6, the “IL-6 level in supernatant” value came out at 207 ± 13 pg/mL and the “effect on TNF-α-induced IL-6 production (in words)” value was “inactive”.
